Experimental data taken from patent publication US4863944A, “Dopamine-β-hydroxylase inhibitors” (SmithKline Beckman Corporation, priority 1988, dated 1989).
Structures can show the parent of a compound that is named as a salt.

What was measured:
DBH [1] = settings: treated patients; Friedman et al.; significance uncertain; cited from earlier work
[2] = test system: spontaneously hypertensive rats; assay: in vivo activity in spontaneously hypertensive rats: electrolyte excretion, urine volume, systolic blood pressure, heart rate; design: species or system rats (Okamoto-Aoki strain spontaneously hypertensive); settings: for Heart Rate 1st dose / Systolic Blood Pressure 1st dose: after 1st dose; for Heart Rate 1st dose / Systolic Blood Pressure 1st dose / Heart Rate 2nd dose / Systolic Blood Pressure 2nd dose: tail-cuff; for Heart Rate 2nd dose / Systolic Blood Pressure 2nd dose: two hours after 2nd dose; for Electrolytes Excreted K^+ / Electrolytes Excreted Na^+ / Urine Volume: urine collected for three hours
From the text: The following procedure was used to test, for in vivo activity, compounds which can be used to inhibit DBH activity in mammals, including certain illustrative compounds of the invention. The compounds wherein R is --CO2 H or --CH2 NHC6 H5, X is --H, Y is --H and n is 1 are not compounds of the invention but can be used in the method of the invention.
Male, Okamoto-Aoki strain spontaneously hypertensive rats, aged 16-20 weeks, were used for testing. The afternoon before testing, the animals were fasted and the following morning the first dose of the test compound was administered, p.o., along with a 25 ml/kg load of normal saline. The animals were then placed in metabolism cages, three per cage, and urine was collected for three hours and subsequently analyzed for sodium, potassium, and creatinine. Indirect systolic blood pressure and heart rate were measured via a tail-cuff method and the animals received an identical second does of the test compound. Two hours after the second dose, the systolic blood pressure and heart rate were again determined. Drugs were administered as a solution or suspension in normal saline with 0.02% ascorbic acid.
Three rats weighing 270-320 g were used. Each received two intraperitoneal injections, in a 24 hour period, of a dose volume of 5 mL and a dose concentration of 50 mg/kg or 25 mg/kg, in 0.9% NaCl, following a 24 hour pretreatment dose. Averaged results with control animals, three per experiment, are reported in parentheses below results of test animals.

[3] = biological target: T1, dopamine-β-hydroxylase (DBH) (Bos taurus, UniProt P15101); assay: biochemical; settings: in vitro; tyramine to octopamine; absorbance at 330 nm; read-out: IC50 (molar concentration of compound at which DBH activity was halved)
T1 sequence (P15101 1-610): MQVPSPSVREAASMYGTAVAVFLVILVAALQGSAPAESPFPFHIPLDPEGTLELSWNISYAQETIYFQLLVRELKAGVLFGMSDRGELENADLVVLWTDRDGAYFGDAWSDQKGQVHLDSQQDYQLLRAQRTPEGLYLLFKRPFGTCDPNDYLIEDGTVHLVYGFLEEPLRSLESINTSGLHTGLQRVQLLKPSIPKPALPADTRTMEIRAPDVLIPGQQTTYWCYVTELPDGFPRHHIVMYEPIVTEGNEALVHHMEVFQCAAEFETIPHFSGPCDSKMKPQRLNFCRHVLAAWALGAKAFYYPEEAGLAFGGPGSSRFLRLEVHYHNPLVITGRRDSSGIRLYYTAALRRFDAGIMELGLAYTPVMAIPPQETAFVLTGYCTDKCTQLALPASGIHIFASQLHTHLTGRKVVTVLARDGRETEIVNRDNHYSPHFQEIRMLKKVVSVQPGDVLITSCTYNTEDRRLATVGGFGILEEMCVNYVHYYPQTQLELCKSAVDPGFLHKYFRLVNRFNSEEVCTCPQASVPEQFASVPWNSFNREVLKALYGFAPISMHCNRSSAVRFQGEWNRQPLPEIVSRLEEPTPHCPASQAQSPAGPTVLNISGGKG
Method: Octopamine was assayed following sodium periodate oxidation to p-hydroxybenzaldehyde by measuring spectrophotometric absorbance at 330 nm. […] Melting points (mp) are given in °C.

DBH [4] = settings: cited from earlier work; for DBH inhibition / mode of DBH inhibition: result in words
[5] = result in words; cited from earlier work
[6] = at certain concentrations; Ehrreich et al.; cited from earlier work
[7] = result in words; Teresawa et al.; cited from earlier work

In the case of CC(C)NCC(O)COc1cccc2ccccc12 (racemic) [propanolanol], the DBH levels (DBH [1]) is listed as “not”.
In the case of Br.Br.Oc1ccc(Cn2ccnc2CNc2ccccc2)cc1 [1-(4-hydroxybenzyl)-2-phenylaminomethyl imidazole dihydrobromide], the “Na^+ /K^+ ratio” value ([2]; dose = 50 mg/kg) is reported as 2.927, the “Heart Rate 1st dose” value ([2]; dose = 50 mg/kg) is reported as 440 beats/min and the “Systolic Blood Pressure 1st dose” value ([2]; dose = 50 mg/kg) is reported as 181 mmHg. For the same compound, the “Heart Rate 2nd dose” value ([2]; dose = 50 mg/kg) was 480 beats/min, the “Systolic Blood Pressure 2nd dose” value ([2]; dose = 50 mg/kg) was 175 mmHg and the “Electrolytes Excreted K^+” value ([2]; dose = 50 mg/kg) was 74.27 μEq/rat. The “Electrolytes Excreted Na^+” value ([2]; dose = 50 mg/kg) was 217.36 μEq/rat, the “Urine Volume” value ([2]; dose = 50 mg/kg) was 3 ml/rat and the “in vivo activity as cardiotonic” value ([2]; result in words) was “significant cardiotonic activity”. It also gave an IC50 [3] greater than 100 µM.
Work on c1ccc(CNCc2nccn2Cc2ccccc2)cc1 [1-benzyl-2-benzylaminomethyl imidazole dihydrochloride] yielded an IC50 [3] of 100 µM.
In the case of O=C(O)c1ccc(CCC(Br)CBr)cn1 (centres unmarked) [5-(3,4-dibromo)butyl picolinic acid], the DBH inhibition (DBH [4]) is listed as “DBH inhibitors”.
In the case of O=C(O)c1ccc(CCCCCl)cn1 [5-(4-chlorobutyl)picolinic acid], the DBH inhibition (DBH [4]) is listed as “can inhibit DBH”.
For CN(C)C(=S)SCc1ccc(C(=O)O)nc1 [5-(dimethyldithiocarbamoyl)methyl picolinic acid], the DBH inhibition (DBH [4]) is given as “DBH inhibitors”.
For NOCc1ccccc1 [Benzyloxyamine, benzyloxyamine], the “mode of DBH inhibition” value (DBH [4]) is given as “apparently act as competitive inhibitors”.
In the case of CCCCc1ccc(C(N)=O)nc1 [Bupicomide, 5-(n-butyl)picolinamide], the antihypertensive activity [5] is listed as “antihypertensive activity” and the DBH inhibition (DBH [4]) is listed as “DBH inhibitor”.
For NCCc1ccc(O)c(O)c1 [DA, dopamine], the vasodilator activity [6] is listed as “selective vasodilator activity at certain concentrations”.
In the case of CCCCc1ccc(C(=O)O)nc1 [Fusaric acid], the hepatotoxicity [7] is listed as “hepatotoxic”.
For Br.Br.NCc1nccn1Cc1ccc(O)cc1 [R = CH2 NH2.2HBr, Y = OH, X = H, n = 1, 1-(4-hydroxybenzyl)-2-aminomethyl imidazole dihydrobromide], the “Na^+ /K^+ ratio” value ([2]; dose = 25 mg/kg) was 2.159, the “Heart Rate 1st dose” value ([2]; dose = 25 mg/kg) was 420 beats/min and the “Systolic Blood Pressure 1st dose” value ([2]; dose = 25 mg/kg) was 161 mmHg. For the same compound, the “Heart Rate 2nd dose” value ([2]; dose = 25 mg/kg) was 440 beats/min, the “Systolic Blood Pressure 2nd dose” value ([2]; dose = 25 mg/kg) was 158 mmHg and the “Electrolytes Excreted K^+” value ([2]; dose = 25 mg/kg) was 103.42 μEq/rat. The “Electrolytes Excreted Na^+” value ([2]; dose = 25 mg/kg) was 223.24 μEq/rat, the “Urine Volume” value ([2]; dose = 25 mg/kg) was 3 ml/rat and the “in vivo activity as antihypertensive” value ([2]; result in words) was “significant antihypertensive activity”. It also gave an IC50 [3] of 35 µM.
NCc1nccn1Cc1ccccc1 [R = CH2 NH2.2HCl, Y = H, X = H, n = 1, 1-benzyl-2-aminomethyl imidazole dihydrochloride] showed an IC50 [3] of 240 µM.
With O=C(O)c1nccn1CCCc1ccc(O)cc1 [R = CO2 H.1/2 H2 O, Y = OH, X = H, n = 3, 1-[3-(4-hydroxyphenyl)propyl]imidazole-2-carboxylic acid, hemihydrate] the “Na^+ /K^+ ratio” value ([2]; dose = 25 mg/kg) was 1.313, the “Heart Rate 1st dose” value ([2]; dose = 25 mg/kg) was 400 beats/min and the “Systolic Blood Pressure 1st dose” value ([2]; dose = 25 mg/kg) was 176 mmHg. For the same compound, the “Heart Rate 2nd dose” value ([2]; dose = 25 mg/kg) was 440 beats/min, the “Systolic Blood Pressure 2nd dose” value ([2]; dose = 25 mg/kg) was 173 mmHg and the “Electrolytes Excreted K^+” value ([2]; dose = 25 mg/kg) was 152.18 μEq/rat. For the same compound, the “Electrolytes Excreted Na^+” value ([2]; dose = 25 mg/kg) was 199.74 μEq/rat, the “Urine Volume” value ([2]; dose = 25 mg/kg) was 6 ml/rat and the “in vivo activity as diuretic” value ([2]; result in words) was “significant diuretic activity”. The IC50 [3] was 70 µM.
For O=C(O)c1nccn1Cc1ccccc1 [R = CO2 H.HCl, Y = H, X = H, n = 1], the “Na^+ /K^+ ratio” value ([2]; dose = 50 mg/kg) was 1.270, the “Heart Rate 1st dose” value ([2]; dose = 50 mg/kg) was 440 beats/min and the “Systolic Blood Pressure 1st dose” value ([2]; dose = 50 mg/kg) was 211 mmHg. The “Heart Rate 2nd dose” value ([2]; dose = 50 mg/kg) was 480 beats/min, the “Systolic Blood Pressure 2nd dose” value ([2]; dose = 50 mg/kg) was 185 mmHg and the “Electrolytes Excreted K^+” value ([2]; dose = 50 mg/kg) was 214.52 μEq/rat. For the same compound, the “Electrolytes Excreted Na^+” value ([2]; dose = 50 mg/kg) was 272.54 μEq/rat, the “Urine Volume” value ([2]; dose = 50 mg/kg) was 15 ml/rat and the “in vivo activity as antihypertensive” value ([2]; result in words) was “significant in vivo activity”. The “in vivo activity as cardiotonic” value ([2]; result in words) was “significant in vivo activity”, the “in vivo activity as diuretic” value ([2]; result in words) was “significant in vivo activity” and the “in vivo activity as natriuretic” value ([2]; result in words) was “significant in vivo activity”. It also gave an IC50 [3] of 11 µM.
Compound COc1ccc(Cn2ccnc2C(=O)O)cc1 [R = CO2 H.HCl, Y = OCH3, X = H, n = 1, 1-(4-methoxybenzyl)imidazole-2-carboxylic acid hydrochloride] has an IC50 [3] of 75 µM.
COc1ccc(CCCn2ccnc2C(=O)O)cc1 [R = CO2 H.HCl, Y = OCH3, X = H, n = 3, 1-[3-(4-methoxyphenyl)propyl]imidazole-2-carboxylic acid hydrochloride] showed an IC50 [3] of 95 µM.
Work on O=C(O)c1nccn1Cc1ccc(O)cc1 [R = CO2 H.HCl, Y = OH, X = H, n = 1, hydrochloride hydrate] yielded an IC50 [3] of 90 µM.
For CC(N)(Cc1ccc(O)c(O)c1)C(=O)O (stereo not drawn) [alpha-methyl-DOPA], the DBH levels (DBH [1]) is given as “lowered DBH levels”.
For NNCc1ccccc1 [benzylhydrazine], the “mode of DBH inhibition” value (DBH [4]) is listed as “apparently act as competitive inhibitors”.
In the case of O=C(O)c1ccc(Cc2ccc(O)cc2)cn1 [phenopicolinic acid], the “DBH inhibitory activity relative to fusaric acid” value (DBH [4]; Runti et al.) is listed as “twice the inhibitory activity of fusaric acid” and the DBH inhibition (DBH [4]) is listed as “can inhibit DBH”.
For COC(=O)[C@H]1[C@H]2C[C@@H]3c4[nH]c5cc(OC)ccc5c4CCN3C[C@H]2C[C@@H](OC(=O)c2cc(OC)c(OC)c(OC)c2)[C@@H]1OC [reserpine], the DBH levels (DBH [1]) is given as “lowered DBH levels”.
